Results taken from patent US8399452B2, “Dibenzo[b,f][1,4]oxazepin-11-yl-N-hydroxybenzamides as HDAC inhibitors” (Methylgene Inc., priority 2006, dated 2013).

biological target: histone deacetylase (HDAC Enzyme); assay: Inhibition of Histone Deacetylase Enzymatic Activity (Boc-Lys(Ac)-AMC, Fluor-de-Lys developer); assay type: biochemical; settings: Table 9; read-out: HDAC Inhibition (IC50 μM) HDAC Enzyme
Protocol: The following protocol is used to assay the compounds of the invention.
The mixture is pre-incubated for 5 minutes at room temperature. The reaction is started by bringing the temperature to 37° C. and adding 16 μl substrate. Total reaction volume is 50 μl.
In the Tables 8, 9 and 10, A≦[…]<B≦0.1 μM; 0.1 μM<C≦1 μM; and 1 μM<D≦10 μM.

Question: With `Cc1ccc(N2C[C@@H]3C[C@H]2CN3c2ccc(C(=O)NO)cc2)cc1` [N-hydroxy-4-((1S,4S)-5-p-tolyl-2,5-diazabicyclo[2.2.1]heptan-2-yl)benzamide] as the compound, how does the IC50 read?
Answer: 0.1 to 1 µM

Question: `O=C(NO)c1ccc(N2C[C@H]3C[C@@H]2CN3c2cc(C(F)(F)F)ccn2)cc1` [N-hydroxy-4-((1R,4R)-5-(4-(trifluoromethyl)pyridin-2-yl)-2,5-diazabicyclo[2.2.1]heptan-2-yl)benzamide] was tested. Which IC50 did it give?
Answer: 1 to 10 µM

Question: `COc1cccc(N2C[C@@H]3C[C@H]2CN3c2ncc(C(=O)NO)cn2)c1` [N-hydroxy-2-((1S,4S)-5-(3-methoxyphenyl)-2,5-diazabicyclo[2.2.1]heptan-2-yl)pyrimidine-5-carboxamide] was tested. Which IC50 did it give?
Answer: < 0.05 µM

Question: How did the IC50 turn out when `O=C(NO)c1cnc(N2C[C@@H]3C[C@H]2CN3C(c2ccccc2)c2ccccc2)nc1` [2-((1S,4S)-5-benzhydryl-2,5-diazabicyclo[2.2.1]heptan-2-yl)-N-hydroxypyrimidine-5-carboxamide] was run?
Answer: < 0.05 µM

Question: With `O=C(NO)c1cnc(N2C[C@@H]3C[C@H]2CN3C(=O)N2CCCC2)nc1` [N-hydroxy-2-((1S,4S)-5-(pyrrolidine-1-carbonyl)-2,5-diazabicyclo[2.2.1]heptan-2-yl)pyrimidine-5-carboxamide] as the compound, how does the IC50 read?
Answer: 0.05 to 0.1 µM

Question: `O=C(NO)c1cnc(N2CC3CC2CO3)nc1` (centres unmarked) [2-(2-oxa-5-azabicyclo[2.2.1]heptan-5-yl)-N-hydroxypyrimidine-5-carboxamide] was tested. Which IC50 did it give?
Answer: 0.1 to 1 µM

Question: `O=C(NO)c1ccc(N2C[C@@H]3C[C@H]2CN3c2cc(C(F)(F)F)ccn2)cc1` [N-hydroxy-4-((1S,4S)-5-(4-(trifluoromethyl)pyridin-2-yl)-2,5-diazabicyclo[2.2.1]heptan-2-yl)benzamide] was tested. Which IC50 did it give?
Answer: 0.1 to 1 µM

Question: Which IC50 does the source give for `O=C(NO)c1cnc(N2C[C@@H]3C[C@H]2CN3C(=O)C(c2ccccc2)c2ccccc2)nc1` [2-((1S,4S)-5-(2,2-diphenylacetyl)-2,5-diazabicyclo[2.2.1]heptan-2-yl)-N-hydroxypyrimidine-5-carboxamide] here?
Answer: 0.05 to 0.1 µM

Question: Which IC50 does the source give for `CN(C)C(=O)c1cccc(N2C[C@@H]3C[C@H]2CN3c2ncc(C(=O)NO)cn2)c1` [2-((1S,4S)-5-(3-(dimethylcarbamoyl)phenyl)-2,5-diazabicyclo[2.2.1]heptan-2-yl)-N-hydroxypyrimidine-5-carboxamide] here?
Answer: < 0.05 µM

Question: Which IC50 does the source give for `O=C(NO)c1cnc(N2C[C@@H]3C[C@H]2CN3c2cc(C(F)(F)F)ccn2)nc1` [N-hydroxy-2-((1S,4S)-5-(4-(trifluoromethyl)pyridin-2-yl)-2,5-diazabicyclo[2.2.1]heptan-2-yl)pyrimidine-5-carboxamide] here?
Answer: < 0.05 µM

same assay, conditions: Table 10; read-out: HDAC Inhibition (IC50 μM) HDAC Enzyme

Question: Which IC50 does the source give for `O=C(NO)c1ccc(C#CCN2C(=O)c3ccccc3Oc3ccccc32)cc1` [N-hydroxy-4-(3-(11-oxodibenzo[b,f][1,4]oxazepin-10(11H)-yl)prop-1-ynyl)benzamide] here?
Answer: < 0.05 µM

Question: With `O=C(NO)c1ccc(OCCN2C(=O)c3ccccc3Oc3ccccc32)cc1F` as the compound, how does the IC50 read?
Answer: 0.05 to 0.1 µM

Question: With `CN1C(=O)CN=C(c2ccccc2)c2ccc(CCC(=O)NO)cc21` [(Z)-N-hydroxy-3-(1-methyl-2-oxo-5-phenyl-2,3-dihydro-1H-benzo[e][1,4]diazepin-8-yl)propanamide] as the compound, how does the IC50 read?
Answer: 0.1 to 1 µM

Question: Which IC50 does the source give for `O=C(CCCCCC(=O)NC1c2ccccc2C=Cc2ccccc21)NO` here?
Answer: 0.1 to 1 µM

Question: With `O=C(NO)c1cnc(NC(c2ccccc2)c2ccccc2)nc1` [2-(benzhydrylamino)-N-hydroxypyrimidine-5-carboxamide] as the compound, how does the IC50 read?
Answer: < 0.05 µM

Question: With `O=C(CCCCCCOc1nc2ccccc2c2ccccc12)NO` [N-hydroxy-7-(phenanthridin-6-yloxy)heptanamide] as the compound, how does the IC50 read?
Answer: < 0.05 µM

Question: Which IC50 does the source give for `O=C(NO)c1cc2c(cn1)[nH]c1ccccc12` [N-hydroxy-9H-pyrido[3,4-b]indole-3-carboxamide] here?
Answer: 1 to 10 µM

Question: `O=C(NO)c1ccc(OCCN2C(=O)c3ccccc3Oc3ccccc32)cc1Cl` was tested. Which IC50 did it give?
Answer: 1 to 10 µM

Question: With `O=C(CCCCCCN1C(=O)c2ccccc2Sc2ccccc21)NO` [N-hydroxy-7-(11-oxodibenzo[b,f][1,4]thiazepin-10(11H)-yl)heptanamide] as the compound, how does the IC50 read?
Answer: < 0.05 µM

Question: How did the IC50 turn out when `O=C(CN1c2ccccc2C=Cc2ccccc21)NO` [(Z)-2-(5H-dibenzo[b,f]azepin-5-yl)-N-hydroxyacetamide] was run?
Answer: 1 to 10 µM

Question: `O=C(NO)c1cnc(N2CCC[C@H]2c2nc3ccccc3[nH]2)nc1` [(S)-2-(2-(1H-benzo[d]imidazol-2-yl)pyrrolidin-1-yl)-N-hydroxypyrimidine-5-carboxamide] was tested. Which IC50 did it give?
Answer: 0.1 to 1 µM

Question: How did the IC50 turn out when `O=C(CCCCCCN1c2ccccc2Oc2ccccc2S1(=O)=O)NO` was run?
Answer: 0.1 to 1 µM

Question: With `O=C(/C=C/c1ccc(CN2C(=O)c3cccnc3N(C3CC3)c3ccccc32)cc1)NO` [(E)-3-(4-((11-cyclopropyl-5-oxo-5H-benzo[b]pyrido[2,3-e][1,4]diazepin-6(11H)-yl)methyl)phenyl)-N-hydroxyacrylamide] as the compound, how does the IC50 read?
Answer: < 0.05 µM

Question: `O=C1CN=C(c2ccc(C(=O)NO)cc2)c2cc(Br)sc2N1` [(Z)-4-(7-bromo-2-oxo-2,3-dihydro-1H-thieno[2,3-e][1,4]diazepin-5-yl)-N-hydroxybenzamide] was tested. Which IC50 did it give?
Answer: 0.1 to 1 µM

Question: `O=C(CCCCCCn1c(=O)c2ccccc2c2ccccc21)NO` [N-hydroxy-7-(6-oxophenanthridin-5(6H)-yl)heptanamide] was tested. Which IC50 did it give?
Answer: < 0.05 µM

Question: Which IC50 does the source give for `O=C(NO)c1ccc(NC2c3ccccc3CCc3ccccc32)nc1` here?
Answer: < 0.05 µM

Question: How did the IC50 turn out when `O=C(NO)c1cnc(ON=C(c2ccccc2)c2ccccc2)nc1` [2-(diphenylmethyleneaminooxy)-N-hydroxypyrimidine-5-carboxamide] was run?
Answer: 1 to 10 µM

Question: Which IC50 does the source give for `O=C(CCCCCN1c2ccccc2CCc2ccccc21)NO` [6-(10,11-dihydro-5H-dibenzo[b,f]azepin-5-yl)-N-hydroxyhexanamide] here?
Answer: < 0.05 µM

Question: `O=C(CCCCCCCON=C1c2ccccc2CCc2ccccc21)NO` was tested. Which IC50 did it give?
Answer: 0.1 to 1 µM

Question: For `O=C(NO)c1cnc(N2C[C@H]3C[C@@]3(c3ccc(C(F)(F)F)cc3)C2)nc1`, which IC50 is on record?
Answer: 0.1 to 1 µM

Question: Which IC50 does the source give for `O=CN(O)CCCCCCN1C(=O)c2ccccc2Oc2ccccc21` [N-hydroxy-N-(6-(11-oxodibenzo[b,f][1,4]oxazepin-10(11H)-yl)hexyl)formamide] here?
Answer: < 0.05 µM

same assay, conditions: read-out: HDAC Inhibtion (IC50 μM) HDAC Enzyme

Question: `O=C(NO)c1ccc(C2=Nc3ccccc3Oc3cccc(F)c32)cc1` [(Z)-4-(1-fluorodibenzo[b,f][1,4]oxazepin-11-yl)-N-hydroxybenzamide] was tested. Which IC50 did it give?
Answer: < 0.05 µM

Question: Which IC50 does the source give for `CCN1c2ccccc2N=C(c2ccc(C(=O)NO)cc2)c2ccccc21` [(Z)-4-(5-ethyl-5H-dibenzo[b,e][1,4]diazepin-11-yl)-N-hydroxybenzamide] here?
Answer: 0.05 to 0.1 µM

Question: For `COc1ccc2c(c1)C(c1ccc(C(=O)NO)cc1)=Nc1ccccc1O2` [(Z)-N-hydroxy-4-(2-methoxydibenzo[b,f][1,4]oxazepin-11-yl)benzamide], which IC50 is on record?
Answer: 0.1 to 1 µM

Question: How did the IC50 turn out when `COc1cc(F)cc2c1Oc1ccccc1N=C2c1ccc(C(=O)NO)cc1` [(Z)-4-(2-fluoro-4-methoxydibenzo[b,f][1,4]oxazepin-11-yl)-N-hydroxybenzamide] was run?
Answer: < 0.05 µM

Question: Which IC50 does the source give for `O=C(NO)c1ccc(C2=Nc3ccccc3Oc3cc(N4CCOCC4)ccc32)cc1` [(Z)-N-hydroxy-4-(3-morpholinodibenzo[b,f][1,4]oxazepin-11-yl)benzamide] here?
Answer: 0.1 to 1 µM

Question: With `O=C(NO)c1ccc(C2=Nc3ccccc3Oc3cnccc32)cc1` [(Z)-4-(benzo[b]pyrido[4,3-f][1,4]oxazepin-5-yl)-N-hydroxybenzamide] as the compound, how does the IC50 read?
Answer: 0.1 to 1 µM

Question: With `O=C(NO)c1ccc(C2=Nc3ccccc3Oc3c2cccc3C(F)(F)F)cc1` [(Z)-N-hydroxy-4-(4-(trifluoromethyl)dibenzo[b,f][1,4]oxazepin-11-yl)benzamide] as the compound, how does the IC50 read?
Answer: < 0.05 µM
